{"source": "patent US11360104B2", "about": "“Microbial-based biosensors” (TRUSTEES OF BOSTON UNIVERSITY, priority 2017, dated 2022)", "key": {"[1]": {"biological_target": "PinR (Nocardioides simplex (Pimelobacter simplex), UniProt A0A0A1DUF2)", "sequence (A0A0A1DUF2 entry or part of it)": "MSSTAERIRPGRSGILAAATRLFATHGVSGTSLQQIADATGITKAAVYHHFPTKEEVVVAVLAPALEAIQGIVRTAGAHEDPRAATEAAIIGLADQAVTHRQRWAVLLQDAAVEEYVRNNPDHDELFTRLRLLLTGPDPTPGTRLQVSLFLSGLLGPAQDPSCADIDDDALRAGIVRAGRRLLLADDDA", "experiment": "Cross-reactivity assay of steroids using sensor 3", "format": "biochemical", "experimental": "The cross-reactivity of progesterone regarding the different steroids was calculated with the following equation:\nDescription for a typical experiment, using a molar ratio of QD/TF/DNA=1/4/18.\n50 uL of the sensor (QD/TF/DNA) was then splitted in 3×9 centrifuge tubes to which 10 uL of progesterone at the desired concentration is added. […] A 384 well plate was filled with 60 uL of each solution. The fluorescence intensity was monitored on a spectrofluorimeter from 535 nm to 800 nm exciting at 400 nm, equipped with a 450 nm long-pass filter in emission."}, "[2]": {"tested_on": "Pimelobacter simplex", "experiment": "Solvent and steroid exposure growth curves", "details": "P. simplex, starting OD 0.005, constant solvent"}, "[3]": {"tested_on": "P. simplex bacteria (steroid responsive genome island, SRGI)", "experiment": "RNA-Seq screen of steroid treated P. simplex against solvent controls", "format": "cell-based, Pimelobacter simplex", "details": "Log2 fold change vs solvent control", "excerpt": "In order to identify steroid binding Transcription Factors, a whole transcriptome RNA sequencing (RNA-Seq) screen was developed (FIG. 7). The growth of Pimelobacter simplex bacteria was profiled with respect to the starting inoculation density, solvent toxicity, and the addition of steroids (FIG. 16). […] P. simplex bacteria were screened against the steroid solvents ethanol (EtOH) and dimethyl sulfoxide (DMSO). […] Steroid growth curves were similarly performed using a starting OD of 0.005 and constant solvent dosing with titrations of steroids. […] P. simplex bacteria were grown in the presence of 700 μM testosterone, 21.88 μM progesterone, 87.50 μM estrone, 21.88 μM 17β-estradiol, 21.88 μM hydrocortisone, or 175.00 μM aldosterone concentrations were selected for comparison.\nUsing accession gene tags, genes were annotated for steroid relevant enzymes or transcription factors. […] Allosteric TF binding sequences are often palindromes and typically located near the start of its gene location in an intergenic space. With such a design, the allosteric TF can regulate itself or the open reading frame (ORF) near it in response to its effector molecule. […] Once identified, the TFs were cloned and recombinantly expressed for thorough characterization.\nCells were grown in 6 mL volumes of media at the OD, solvent, and steroid concentrations found from the growth curves in 14 mL polypropylene round-bottom tubes (Corning #352059) in technical duplicate. The same controls as in the steroid exposure growth curve were used for setting up RNA extraction samples. The cells were incubated at their corresponding temperature with continuous orbital shaking at 150 rpm until the end of lag-phase, mid-log phase, or stationary phase from the start of inoculation. Afterward, samples were removed and a 1:1 ratio of RNAprotect Bacteria Reagent (Qiagen #76506) was added followed by spinning down at 4° C. for 10 minutes at 4000 g. Supernatant was removed and the pellet re-suspended in 300 μL of RNAprotect and transferred into 2.0 mL Safe-Lock Tubes (Eppendorf #3101). The samples were then spun down once again at 4° C. for 10 minutes at 10000 g. Once the supernatant has been removed the samples were placed on ice and ready for RNA extraction. RNA extraction was done by Qiacube (Qiagen #9001292) set to the RNeasy Protect Bacteria Mini Kit protocol of bacterial cell pellet with enzymatic lysis. Tube A was prepared as described except with the addition of 150 mg/mL lysozyme (Sigma-Aldrich #L6876) and 20 mg/mL proteinase K (Roche #03115879001) all diluted in 1xTE buffer. RNA samples were subsequently quantified using Qubit RNA HS Assay Kit (Thermo Fisher Scientific #Q32852) and analyzed using a RNA 6000 Pico Kit (Agilent 5067-1513) in a 2100 Bioanalyzer (Agilent G2939A). RNA samples were either immediately used for RNA-Seq library preparation or stored long-term at −80° C.\nRNA-Seq libraries were then produced from these samples using a slightly modified ScriptSeq v2 RNA-Seq Library Preparation Kit (Illumina 455A/22124) ensuring use of unique index primers through ScriptSeq Index PCR Primers (Sets 1-4) 48 rxns/set (Illumina #SSIP1234)."}}}
{"smiles": "CC(=O)[C@H]1CC[C@H]2[C@@H]3CCC4=CC(=O)CC[C@]4(C)[C@H]3CC[C@]12C", "note": "[PRG, Progesterone]", "values": [{"measurement": "IC50", "setting": "[1]", "result": "0.059 ± 0.004", "unit": "µM"}, {"measurement": "P (slope of fit)", "setting": "[1]; sensor 3, HEPES 1×", "result": "1.31 ± 0.10"}, {"measurement": "highest steroid concentration exhibiting normal growth profile", "setting": "[2]", "result": 21.88, "unit": "µM"}, {"measurement": "upregulation of genes inside the SRGI (in words)", "setting": "[3]", "result": "upregulation of genes inside the SRGI were observed"}]}
